According to publication PMC7763444, “Bioactive Steroids from the Red Sea Soft Coral Sinularia polydactyla” (Marine Drugs, 2020):

How the values were obtained:
[1] = system: neuron-like SH-SY5Y cells; assay: Neuroprotection in 3-NPA-induced model of Huntington's disease, Calcein AM viability; type: cell-based, human; details: 20 mM 3-NPA alone, 48 h
[2] = system: ELAM (E-selectin, CD62E) on HUVEC; assay: Cell-surface ELISA CD62E (E-selectin, ELAM) after TNFα stimulation; type: cell-based, human; details: 10 µM; 30 min pre-treatment, then TNFα for 4 h
Description: TNFα stimulates NFκB (nuclear factor kappa-light-chain-enhancer of activated B cells) and thus E-selectin (CD62E, ELAM). Endothelial cells were pre-treated for 30 min with the tested compounds and then activated with TNFα for 4 h. Curcumin, which inhibits activation of NF-κB and thus inhibits expression and activity of the COX-2 gene induced by TNFα [21], was used as a positive control, decreasing ELAM production to 25% at 10 µM.
An enzyme-linked immunosorbent assay (ELISA) was used to detect the levels of the cell adhesion molecule ELAM in HUVEC cells after 30 min of incubation with the tested compounds and 4 h of stimulation with TNFα, as previously described.
the cell surface of endothelial cells that were pretreated with 10 µM compounds for 30 min and
subsequently stimulated with 10 ng/ml TNFα for 4 h. Data are means ± SDs ( n = 3).
(1 picture or pasted object on this page, not shown here)

SMILES | Decrease in cell viability [1] | ELAM production (decreased to) [2] [%]
O=C(O)CC[N+](=O)[O-] [Compound 3-NPA, 3-nitropropionic acid] | approx. 70% | 
COc1cc(/C=C/C(=O)CC(=O)/C=C/c2ccc(O)c(OC)c2)ccc1O [Curcumin] |  | 25
